Data reported in PMC8778818, “Synthesis, Structural Characterization and Anticancer Activity of New 5-Trifluoromethyl-2-thioxo-thiazolo[4,5-d]pyrimidine Derivatives” (Pharmaceuticals, 2022).

What was measured:
CCRF-CEM = test: NCI-60 screen, Leukemia CCRF-CEM; type: cell-based, human
MOLT-4 = test: NCI-60 screen, Leukemia MOLT-4; type: cell-based, human
COLO-205 = test: NCI-60 screen, Colon Cancer COLO-205; type: cell-based, human
HCT-15 = test: NCI-60 screen, Colon Cancer HCT-15; type: cell-based
HT29 = test: NCI-60 screen, Colon Cancer HT29; type: cell-based, human
KM12 = test: NCI-60 screen, Colon Cancer KM12; type: cell-based, human
SW620 = test: NCI-60 screen, Colon Cancer SW620; type: cell-based, human
SF-295 = test: NCI-60 screen, CNS Cancer SF-295; type: cell-based, human; settings: SF-295, five doses 10^−4–10^−8 M
SNB-19 = test: NCI-60 screen, CNS Cancer SNB-19; type: cell-based, human
MDA-MB-435 = test: NCI-60 screen, Melanoma MDA-MB-435; type: cell-based, human
Procedure: (§1) The search for the cytotoxic activity of new derivatives usually starts with in vitro cell-based screening. Four compounds 2b (NSC D-745983/1), 3b (NSC D-766111/1), 4b (NSC D-785591/1) and 4c (NSC D-771706/1), selected by the National Cancer Institute were tested in the anticancer screen for a panel of approximately 60 human disease-oriented tumor cell lines, organized into subpanels derived from nine human cancer types—leukemia, melanoma, and cancers of the lung, colon, brain, breast, ovary, prostate, and kidney. They were initially tested at only one concentration of 10 µM (10^−5 M) for each cell line, which were inoculated and preincubated on a microtiter plate for […]. The results of the one-dose anticancer assay for the tested new compounds are reported as the percentage of the treated cell growth in comparison with untreated no-drug control. This allows for detection of the growth inhibition—values 0–100 and cytotoxicity; negative numbers mean cell death.
(§2) Antitumor activity in five dose testing (10^−4−10^−8 M) is expressed by three different dose–response parameters for each of the 60 human tumor cell lines. The GI50 value (molar concentration causing a half-growth inhibition), TGI (molar concentration required for total growth inhibition), which signifies the cytostatic effect, and LC50 (molar concentration of the compound required for 50% cell death). LC50 signifies the cytotoxic effect. […] Nevertheless, the selectivity for GI50 can be seen for several cell lines within subpanel leukemia (SR, log GI50 −6.36) and non-small cell lung cancer (NCI-H522, log GI50 −6.69).
(§3) The antitumor screening (NCI-60) was performed at the National Cancer Institute, Bethesda, USA. A total panel of approximately 60 human tumor cell lines derived from nine different cancer types (leukemia, non-small cell lung, colon, brain, melanoma, ovarian, renal, prostate and breast) formed the basis of this in vitro test. The origins and processing of the cell lines used in the study were described previously. First, the compounds were evaluated in a primary anticancer assay at 10^−5 M. Results for each tested compound are reported as the percent of growth of the treated cells. […] The human tumor cell lines of the cancer screening panel were grown in an RMPI 1640 medium containing 5% fetal bovine serum and 2 mM of L-glutamine. Each cell line was inoculated and preincubated at 37 °C, 5% CO2, 95% air and 100% relative humidity for 24 h, before the addition of the test compound into 96-well microtiter plates in 100 µL at plating densities ranging from 5000 to 40,000 cells/well. The density of inoculum depends on the type of tumor cell and its growth characteristics. The screened compounds were solubilized in dimethyl sulfoxide at 400-fold the desired final concentration and stored frozen. At the time of the test agents’ addition, an aliquot of frozen concentrate was thawed and diluted to twice the desired final concentration with complete medium containing 50 µg/mL gentamicin. Next, the test compounds were evaluated at the four additional 10-fold dilutions to reach the final concentrations plus control. Aliquots of 100 µL of the different dilutions (100, 10, 1, […] µM/mL) of the tested compounds were added to microtiter wells, and the culture was incubated for 48 h under the same conditions. Cell were fixed in situ by the addition of 50 µL of cold 50% trichloroacetic acid and incubated for 60 min at 4 °C. The supernatant was discarded; plates were washed five times with water and air-dried. Sulforhodamine B at 0.4% in 1% acetic acid, 100 µL, was added to each well, then plates were incubated for 10 min at room temperature. Unbound dye was removed by washing five times with 1% acetic acid and air dried. The protein-bound stain was solubilized with a […] trizma base and the absorbance was read on an automated plate reader. A wavelength of 515 nm was used to read optical densities. […]

SK-MEL-2 = test: NCI-60 screen, Melanoma SK-MEL-2; type: cell-based, human
UACC-62 = test: NCI-60 screen, Melanoma UACC-62; type: cell-based, human; settings: UACC-62, 10^−5 M one dose
OVCAR-4 = test: NCI-60 screen, Ovarian Cancer OVCAR-4; type: cell-based, human
SK-OV-3 = test: NCI-60 screen, Ovarian Cancer SK-OV-3; type: cell-based, human
ACHN = test: NCI-60 screen, Renal Cancer ACHN; type: cell-based, human
RXF 393 = test: NCI-60 screen, Renal Cancer RXF 393; type: cell-based, human
MCF7 = test: NCI-60 screen, Breast Cancer MCF7; type: cell-based, human
HS 578T = test: NCI-60 screen, Breast Cancer HS 578T; type: cell-based, human
BT-549 = test: NCI-60 screen, Breast Cancer BT-549; type: cell-based, human
MDA-MB-468 = test: NCI-60 screen, Breast Cancer MDA-MB-468; type: cell-based, human
Procedure: as §1, §2, §3

[1] = Homo sapiens, five doses 10^−4–10^−8 M
[2] = Homo sapiens, five doses 10^−4–10^−8 M, read-out: log LC50 (the source's name) (converted)
[3] = Homo sapiens, MOLT-4, five doses 10^−4–10^−8 M
[4] = Homo sapiens, COLO-205, five doses 10^−4–10^−8 M
[5] = Homo sapiens, SW-620, SW620, five doses 10^−4–10^−8 M
[6] = Homo sapiens, SNB-19, five doses 10^−4–10^−8 M
[7] = Homo sapiens, SK-MEL-2, five doses 10^−4–10^−8 M

SMILES: FC(F)(F)c1nc(Cl)c2sc(=S)n(-c3ccccc3)c2n1 [Compound 3b, 7-chloro-3-phenyl-5-(trifluoromethyl)[1, 3]thiazolo[4,5-d]pyrimidine-2(3H)-thione]
- Growth of Cells (%) (CCRF-CEM; 10^−5 M one dose): −51.41%
- GI50 (CCRF-CEM; [1]): 0.933 µM
- CC50 (CCRF-CEM; [2]): > 100 µM
- log TGI (CCRF-CEM; five doses 10^−4–10^−8 M): −5.50 log M
- GI50 (MOLT-4; [3]): 3.09 µM
- LC50 (MOLT-4; [3]): > 100 µM
- Growth of Cells (%) (MOLT-4; MOLT-4, 10^−5 M one dose): −27.71%
- log TGI (MOLT-4; MOLT-4, five doses 10^−4–10^−8 M): −5.07 log M
- Growth of Cells (%) (COLO-205; COLO-205, 10^−5 M one dose): 30.63%
- log TGI (COLO-205; COLO-205, five doses 10^−4–10^−8 M): −5.44 log M
- GI50 (COLO-205; [4]): 1.95 µM
- LC50 (COLO-205; [4]): 6.61 µM
- Growth of Cells (%) (HCT-15; HCT-15, 10^−5 M one dose): 2.98%
- log TGI (HCT-15; HCT-15, five doses 10^−4–10^−8 M): −5.26 log M
- GI50 (HCT-15; Homo sapiens, HCT-15, read-out: log GI50 (converted)): 1.86 µM
- CC50 (HCT-15; Homo sapiens, HCT-15, five doses 10^−4–10^−8 M, read-out: log LC50 (the source's name) (converted)): > 100 µM
- Growth of Cells (%) (HT29; HT29, 10^−5 M one dose): −71.75%
- log TGI (HT29; HT29, five doses 10^−4–10^−8 M): −5.40 log M
- GI50 (HT29; Homo sapiens, HT-29, HT29, five doses 10^−4–10^−8 M): 1.91 µM
- GI50 (KM12; Homo sapiens, KM12, five doses 10^−4–10^−8 M): 2.29 µM
- CC50 (KM12; Homo sapiens, KM12, five doses 10^−4–10^−8 M, read-out: log LC50 (the source's name) (converted)): 14.5 µM
- Growth of Cells (%) (KM12; KM12, 10^−5 M one dose): 90.93%
- log TGI (KM12; KM12, five doses 10^−4–10^−8 M): −5.30 log M
- GI50 (SW620; [5]): 2.14 µM
- LC50 (50% lethal concentration) (SW620; [5]): 21.4 µM
- Growth of Cells (%) (SW620; SW620, 10^−5 M one dose): −63.05%
- log TGI (SW620; SW620, five doses 10^−4–10^−8 M): −5.32 log M
- GI50 (SF-295; Homo sapiens): 12.3 µM
- LC50 (SF-295; Homo sapiens): 52.5 µM
- log TGI (SF-295): −4.59 log M
- GI50 (SNB-19; [6]): 1.78 µM
- LC50 (SNB-19; [6]): 5.89 µM
- Growth of Cells (%) (SNB-19; SNB-19, 10^−5 M one dose): 98.46%
- log TGI (SNB-19; SNB-19, five doses 10^−4–10^−8 M): −5.49 log M
- GI50 (MDA-MB-435; Homo sapiens, MDA-MB-435, five doses 10^−4–10^−8 M): 1.86 µM
- CC50 (MDA-MB-435; Homo sapiens, MDA-MB-435, five doses 10^−4–10^−8 M, read-out: log LC50 (the source's name) (converted)): 7.41 µM
- Growth of Cells (%) (MDA-MB-435; MDA-MB-435, 10^−5 M one dose): 6.26%
- log TGI (MDA-MB-435; MDA-MB-435, five doses 10^−4–10^−8 M): −5.43 log M
- GI50 (SK-MEL-2; [7]): 2 µM
- LC50 (SK-MEL-2; [7]): 7.24 µM
- Growth of Cells (%) (SK-MEL-2; SK-MEL-2, 10^−5 M one dose): 55.66%
- log TGI (SK-MEL-2; SK-MEL-2, five doses 10^−4–10^−8 M): −5.42 log M
- Growth of Cells (%) (UACC-62): 79.14%
- GI50 (OVCAR-4; Homo sapiens, OVCAR-4, five doses 10^−4–10^−8 M): 1.78 µM
- CC50 (OVCAR-4; Homo sapiens, OVCAR-4, five doses 10^−4–10^−8 M, read-out: log LC50 (the source's name) (converted)): 7.24 µM
- Growth of Cells (%) (OVCAR-4; OVCAR-4, 10^−5 M one dose): 23.73%
- log TGI (OVCAR-4; OVCAR-4, five doses 10^−4–10^−8 M): −5.44 log M
- GI50 (SK-OV-3; Homo sapiens, SK-OV-3, five doses 10^−4–10^−8 M): 4.9 µM
- CC50 (SK-OV-3; Homo sapiens, SK-OV-3, five doses 10^−4–10^−8 M, read-out: log LC50 (the source's name) (converted)): > 100 µM
- Growth of Cells (%) (SK-OV-3; SK-OV-3, 10^−5 M one dose): 101.94%
- log TGI (SK-OV-3; SK-OV-3, five doses 10^−4–10^−8 M): −4.97 log M
- Growth of Cells (%) (ACHN; 10^−5 M one dose): 27.40%
- GI50 (ACHN; [1]): 1.74 µM
- CC50 (ACHN; [2]): 6.31 µM
- log TGI (ACHN; five doses 10^−4–10^−8 M): −5.48 log M
- GI50 (RXF 393; Homo sapiens, RXF 393, five doses 10^−4–10^−8 M): 1.82 µM
- CC50 (RXF 393; Homo sapiens, RXF 393, five doses 10^−4–10^−8 M, read-out: log LC50 (the source's name) (converted)): 6.17 µM
- Growth of Cells (%) (RXF 393; RXF 393, 10^−5 M one dose): −16.27%
- log TGI (RXF 393; RXF 393, five doses 10^−4–10^−8 M): −5.47 log M
- GI50 (MCF7; Homo sapiens, MCF7, five doses 10^−4–10^−8 M): 2.24 µM
- CC50 (MCF7; Homo sapiens, MCF7, five doses 10^−4–10^−8 M, read-out: log LC50 (the source's name) (converted)): 57.5 µM
- Growth of Cells (%) (MCF7; MCF7, 10^−5 M one dose): 22.84%
- log TGI (MCF7; MCF7, five doses 10^−4–10^−8 M): −5.25 log M
- Growth of Cells (%) (HS 578T; 10^−5 M one dose): 21.84%
- GI50 (HS 578T; [1]): 2.82 µM
- CC50 (HS 578T; [2]): > 100 µM
- log TGI (HS 578T; five doses 10^−4–10^−8 M): −5.07 log M
- Growth of Cells (%) (BT-549; BT-549, 10^−5 M one dose): 73.90%
- log TGI (BT-549; BT-549, five doses 10^−4–10^−8 M): −5.50 log M
- GI50 (BT-549; Homo sapiens, BT-549, five doses 10^−4–10^−8 M): 1.51 µM
- CC50 (BT-549; Homo sapiens, BT-549, five doses 10^−4–10^−8 M, read-out: log LC50 (the source's name) (converted)): 6.76 µM
- GI50 (MDA-MB-468; Homo sapiens, MDA-MB-468, five doses 10^−4–10^−8 M): 1.7 µM
- CC50 (MDA-MB-468; Homo sapiens, MDA-MB-468, five doses 10^−4–10^−8 M, read-out: log LC50 (the source's name) (converted)): 7.41 µM
- Growth of Cells (%) (MDA-MB-468; MDA-MB-468, 10^−5 M one dose): 54.38%
- log TGI (MDA-MB-468; MDA-MB-468, five doses 10^−4–10^−8 M): −5.45 log M
